25 molecules from US6172079A, “5-substituted-3-oxadiazolyl-1,6-naphthyridin-2(1H)-one derivatives” (Dainippon Pharmaceutical Co., Ltd., priority 1997, dated 2001) can be followed below.

What is called IC50 is the concentration needed to halve the response being measured.

In assay [1] the test system is GABAA receptor complex (TBPS binding). The experiment in a line: TBPS Binding Assay. Set-up: species or system Wistar rats. Particulars: [35S]TBPS 0.4 nM, GABA 1 μM, rat cerebral cortex membrane, +% inverse agonistic, 0% antagonistic. On the procedure:
The TBPS (t-butylbicyclophosphonothionate) binding assay and the preparation of the membrane specimen were done in a similar manner to the method of Biggio, G. et al. [cf. European Journal of Pharmacology, vol.
That is, to the cerebral cortex was added a 50-fold volume of an ice-cooled buffer (a 50 mM Tris-citrate buffer containing 100 mM sodium chloride, pH 7.4) and the mixture was homogenized at 0-4° C. and then centrifuged at 20,000 g for 20 minutes. The pellets thus obtained were once subjected to homogenization in a buffer and centrifugation by the same procedure as above and then kept in freezed state at -80° C. for more than 20 hours. On the test day, the freezed pellets were thawed and then subjected twice to the homogenization-centrifugation procedure as described above.
Subsequently, the filter was moved into a liquid scintillation vial and thereto was added a liquid scintillation cocktail (ACS-II, manufactured by Amersham, USA, 10 ml) and allowed to stand for a fixed period of time. […] Separately, the same procedures were repeated in the presence of Picrotoxin to determine the non-specific binding amount. The non-specific binding amount was deducted from the total binding amount to give the specific binding amount. The binding activity of the test compound was calculated by a variation rate, i.e., a rate of the specific binding amount of the test compound to the specific binding amount in control (using a solvent).

For the next assay, the target named is benzodiazepine receptor. The experiment in a line: Benzodiazepine Receptor Binding Assay. The settings on record: read-out: BZP-receptor Binding IC50; [3H]-diazepam 1.5 nM; rat brain crude synaptosome membrane; 0° C., 20 min.

`CCc1nc(-c2cc3c(-c4ccccc4F)nccc3[nH]c2=O)no1` [Example 95]: in assay [1], the “TBPS binding Variation Rate” value turned out to be 13%. On benzodiazepine receptor, the IC50 was found to be 1.09 nM.

As for `CCc1noc(-c2cc3c(CC(C)C)nccc3[nH]c2=O)n1` [Example 196], in assay [1], the “TBPS binding Variation Rate” value is -9%. In addition, the half-inhibitory concentration (IC50) on benzodiazepine receptor turned out to be 4.6 nM.

`O=c1[nH]c2ccnc(-c3cccc(Cl)c3)c2cc1-c1noc(C2CC2)n1` [Example 55]: the “TBPS binding Variation Rate” value in assay [1] is recorded as -16%. Also, the half-maximal inhibitory concentration (IC50) at benzodiazepine receptor was 1.66 nM.

For `CC(C)c1nc(-c2cc3c(-c4ccc(F)cc4)nccc3[nH]c2=O)no1` [Example 47], the “TBPS binding Variation Rate” value in assay [1] is given as -11%. The IC50 at benzodiazepine receptor was determined as 2.33 nM.

`Cc1nc(-c2cc3c(-c4ccccc4F)nccc3[nH]c2=O)no1` [Example 87]: the “TBPS binding Variation Rate” value in assay [1] amounted to 32%. Moreover, the half-maximal inhibitory concentration (IC50) at benzodiazepine receptor was found to be 2.35 nM.

As for `Cc1nc(-c2cc3c(C)nccc3[nH]c2=O)no1` [Example 2], in assay [1], the “TBPS binding Variation Rate” value came to 53%.

Consider `O=c1[nH]c2ccnc(-c3ccsc3)c2cc1-c1noc(C2CC2)n1` [Example 123], for which the “TBPS binding Variation Rate” value in assay [1] is listed as 12%. In addition, the IC50 on benzodiazepine receptor turned out to be 1.12 nM.

With `Cc1noc(-c2cc3c(-c4cccc(F)c4)nccc3[nH]c2=O)n1` [Example 177], the “TBPS binding Variation Rate” value in assay [1] was determined as 29%.

`Cc1nc(-c2cc3c(-c4cccs4)nccc3[nH]c2=O)no1` [Example 92]: in assay [1], the “TBPS binding Variation Rate” value stood at 32%. Also, the half-maximal inhibitory concentration (IC50) at benzodiazepine receptor was found to be 0.75 nM.

Take `CCc1noc(-c2cc3c(-c4cccc(C)c4)nccc3[nH]c2=O)n1` [Example 206]: in assay [1], the “TBPS binding Variation Rate” value is given as -13%. Moreover, the IC50 at benzodiazepine receptor worked out at 1.16 nM.

In the case of `CC(C)c1noc(-c2cc3c(C4CC4)nccc3[nH]c2=O)n1` [Example 224], the “TBPS binding Variation Rate” value in assay [1] is -12%. For the same molecule, the half-maximal inhibitory concentration (IC50) on benzodiazepine receptor is 3.57 nM.

On to `CCc1nccc2[nH]c(=O)c(-c3noc(C4CC4)n3)cc12` [Example 48], for which the “TBPS binding Variation Rate” value in assay [1] is on record as 18%. Further, the IC50 at benzodiazepine receptor was determined as 1.49 nM.

Turning to `Cc1noc(-c2cc3c(-c4ccco4)nccc3[nH]c2=O)n1` [Example 188], the “TBPS binding Variation Rate” value in assay [1] is recorded as 34%. Besides, the concentration for half-maximal inhibition (IC50) on benzodiazepine receptor came to 1.2 nM.

In the case of `CC(C)c1noc(-c2cc3c(-c4ccc(F)cc4)nccc3[nH]c2=O)n1` [Example 228], the “TBPS binding Variation Rate” value in assay [1] is -10%. In addition, the IC50 on benzodiazepine receptor amounted to 1.59 nM.

Take `CC(C)c1nc(-c2cc3c(C(C)C)nccc3[nH]c2=O)no1` [Example 43]: the “TBPS binding Variation Rate” value in assay [1] amounted to 28%.

In the case of `CCc1noc(-c2cc3c(C(C)C)nccc3[nH]c2=O)n1` [Example 193], the “TBPS binding Variation Rate” value in assay [1] amounted to 44%. For the same molecule, the IC50 at benzodiazepine receptor was determined as 4.1 nM.

With `Cc1nc(-c2cc3c(-c4ccc(Cl)cc4)nccc3[nH]c2=O)no1` [Example 8], the “TBPS binding Variation Rate” value in assay [1] is 13%.

In the case of `CCc1nc(-c2cc3c(C(C)C)nccc3[nH]c2=O)no1` [Example 16], the “TBPS binding Variation Rate” value in assay [1] came out at 38%. The IC50 at benzodiazepine receptor came to 3.69 nM.

As to `CCc1nc(-c2cc3c(C4CCC4)nccc3[nH]c2=O)no1` [Example 21], the “TBPS binding Variation Rate” value in assay [1] is recorded as 21%. Besides, on benzodiazepine receptor, the half-maximal inhibitory concentration (IC50) was determined as 4.21 nM.

Turning to `CCc1noc(-c2cc3c(-c4cccc(Cl)c4)nccc3[nH]c2=O)n1` [Example 203], the “TBPS binding Variation Rate” value in assay [1] is listed as 17%. Further, at benzodiazepine receptor, the IC50 is 1.97 nM.

On to `CCc1nc(-c2cc3c(C4CC4)nccc3[nH]c2=O)no1` [Example 17], for which, in assay [1], the “TBPS binding Variation Rate” value came to 25%. Moreover, the 50% inhibitory concentration (IC50) at benzodiazepine receptor is 0.69 nM.

As to `Cc1noc(-c2cc3c(-c4ccc(Cl)cc4)nccc3[nH]c2=O)n1` [Example 181], in assay [1], the “TBPS binding Variation Rate” value is given as 13%.

In the case of `CCCc1nc(-c2cc3c(C(C)C)nccc3[nH]c2=O)no1` [Example 36], the “TBPS binding Variation Rate” value in assay [1] is given as 15%.

For `CCc1nc(-c2cc3c(C)nccc3[nH]c2=O)no1` [Example 13], the “TBPS binding Variation Rate” value in assay [1] was determined as 24%.

For `COc1ccccc1-c1nccc2[nH]c(=O)c(-c3nc(C)no3)cc12` [Example 185], in assay [1], the “TBPS binding Variation Rate” value stood at 19%.
